Measured values taken from patent publication US20250032568A1, “TRADITIONAL CHINESE MEDICINE COMPOSITION AND TRADITIONAL CHINESE MEDICINE DECOCTION FOR TREATING GASTROESOPHAGEAL REFLUX DISEASE (GERD), AND PREPARATION METHOD AND USE THEREOF” (AFFILIATED HOSPITAL OF JIANGXI UNIVERSITY OF TRADITIONAL …, priority 2023, published 2025).

Columns and labels:
Type in all cases: in vivo, human
[1] = tested on: gastroesophageal reflux disease (GERD); experiment: TCM symptom scoring in GERD patients; conditions: 40 per group, mean ± S
Description: (§1) In this example, 80 patients who were diagnosed with GERD in the inpatient and outpatient departments of the Gastroenterology Department of the Affiliated Hospital of Jiangxi University of Traditional Chinese Medicine from 2022.6.1 to 2023.2-28 and met this standard were collected, with a total effective rate of 87.5%.
(§2) Treatment group: 100 mL Bid of the traditional Chinese medicine decoction prepared in Example 1
(§3) Control group: 20 mg Bid of an esomeprazole magnesium soluble capsule
3) TCM symptom scoring: referring to the “Guiding Principles for Clinical Research of New Traditional Chinese Medicines” for scoring. The scoring criteria are as follows: primary symptoms including acid reflux, heartburn, belching and reflux; the secondary symptoms including retrosternal burning pain, throat discomfort, bitter mouth, nausea. There are 4 levels according to none, mild, moderate, and severe. The primary symptoms are recorded as 0, 2, 4 and 6 points, respectively, while the secondary symptoms are recorded as 0, 1, 2 and 3 points, respectively.

[2] = tested on: gastroesophageal reflux disease (GERD); experiment: Clinical efficacy (total effective rate) in GERD patients; conditions: 40 per group; for Efficacy (total effective rate): (Recovery+Significant effect+Effective)/total number of cases
Description: as §1, §2, §3

[3] = tested on: gastroesophageal reflux disease (GERD); experiment: Reflux Disease Questionnaire (RDQ) score in GERD patients; conditions: 40 per group, mean ± S
Description: as §1, §2, §3
1) Reflux Disease Questionnaire (RDQ)
RDQ is currently the most recognized and widely used diagnostic scale for GERD in the world.
The maximum score for frequency and symptom severity is 40 points, and the GERD is diagnosed when the RDQ score is >12 points.
RDQ scoring criteria: a. Scoring based on the frequency of symptom onset: based on the weekly frequency of four symptoms: heartburn, regurgitation, non-cardiac chest pain, and acid reflux, “never”, “1 week <1 d”, “1 d per 1 week”, “2-3 d per 1 week”, “4-5 d per 1 week”, and “almost every day” were scored as 0, 1, 2, 3, 4, and 5 points, respectively, with a maximum of 20 points. b. […]

[4] = decoction 100 mL Bid or esomeprazole capsule 20 mg Bid, after the test

`COc1ccc2[n-]c([S+]([O-])Cc3ncc(C)c(OC)c3C)nc2c1.COc1ccc2[n-]c([S+]([O-])Cc3ncc(C)c(OC)c3C)nc2c1.[Mg+2]` (stereo not drawn) [esomeprazole magnesium soluble capsule, esomeprazole magnesium] was tested, and the “TCM symptom score after treatment” value ([1]; after treatment) was 8.43 ± 4.29^[4], the “TCM symptom score before treatment” value ([1]; baseline) was 17.85 ± 4.07^[2] and the “Efficacy (total effective rate)” value ([2]; listed as Control) was 82.50%. For the same compound, the “Efficacy (total effective rate)” value ([2]; listed as control group) was 82.5%, the “Effective (number of patients)” value [2, 4] was 23 and the “Invalid (number of patients)” value [2, 4] was 7. The “Recovery (number of patients)” value [2, 4] was 4, the “Significant effect (number of patients)” value [2, 4] was 6 and the “RDQ score after treatment” value [3] was 13.73 ± 4.59^[4].
